From patent US8124069B2, “Immunogenic peptides” (Rush University Medical Center, priority 2002, dated 2012)
Where “and” joins values, the source holds several entries; their conditions need not be identical. Equal values may be shown once.

Tests used:
HLA-A2.1 = HLA-A2.1 (Homo sapiens, UniProt P04439, D140Y/D185E/D98H/E176V/E277Q/G131W/G231S/I119V/I121R/I166T/I218V/L300P/L318F/N151K/N90K/P208A/P217A/Q86G/Q94H/R138H/R169H/T345S); assay: Peptide binding to HLA-A2.1+ T2 cells under Brefeldin A treatment (peptide/HLA-A2.1 complex stability)
[1] = tested on: HLA-A2.1 positive ML-2 cells; assay: Cytotoxicity of peptide-specific CTLs against ML-2 cells (51Cr release); assay type: cell-based, human; settings: for Cytotoxicity of peptide-specific CTLs against ML-2 cells (%): target:effector 1:60
Source text: The present example illustrates that that the present peptides are capable of inducing a T-lymphocyte response. In this example, antigen presenting cells were pulsed at 150 micrograms of each peptide per 1 million antigen presenting cells with the following amino acid sequences: […]

dendritic cells = assay: Phenotypic analysis of dendritic cells matured with maturation factors; assay type: cell-based, human; settings: DCs matured during last three days of culture
Description: Immature DCs were generated according to modified protocols of Romani et al. (1994) and Bakker et al. (1995). Briefly, fresh or frozen/thawed CD14+ cells were cultured in RPMI 1640 medium (Gibco-Life Technologies) supplemented with 10% FCS, 1,000 U/ml GM-CSF and 1,000 U/ml IL-4. The cell cultures were fed with fresh medium and GM-CSF and IL-4 every other day and cell differentiation was monitored by light microscopy. On day 7, the cultures were supplemented with different combinations of DC maturation factors such as lipopolysaccharide (100 U/ml), TNF-α (10 ng/ml), or IFN-α (1,000 U/ml) plus TNF-α (10 ng/ml). After three days of incubation, mature DCs (mDC) were harvested and evaluated for their phenotypes by flow cytometry. The maturation factor(s) yielding optimal DC maturation was determined and used to generate mDCs for peptide pulsing in upcoming studies. In this example, immature DCs obtained by the culture of CD 14+ monocytes with GM-CSF (1,000 U/ml) and IL-4 (1,000 U/ml) were induced to undergo maturation by incubation with LPS (100 Units/ml), TNF-α10 ng/ml) or TNF-α (10 ng/ml)+IFN-α50 ng/ml) during the final three days of the culture period. […] The highest up-regulation of the co-stimulatory (CD80 and CD86) and HLA-A2.1 MHC class I molecules was detected on DCs treated with TNF-α+IFN-α (Table 5).

[2] = tested on: effector cells (T lymphocytes); settings: APC: T2; 2 stims

Question: What does the source list for “ALISGDSPV (listed as Homo sapiens) [SEQ ID NO: 16, modified CD33 peptide]”?
Answer: binding to HLA-A2.1 on T2 cells, in words (HLA-A2.1): good and prolonged stable binding; immunogenicity in similar experiments [1]: immunogenic

Question: With TNF-α as the substance, how does the “CD80 expression, mean channel fluorescence (MCF)” value (dendritic cells) read?
Answer: 107

Question: And the “CD86 expression, mean channel fluorescence (MCF)” value (dendritic cells)?
Answer: 96

Question: And the “HLA-A2.1 expression, mean channel fluorescence (MCF)” value (dendritic cells)?
Answer: 475

Question: How did the “Cytotoxicity of peptide-specific CTLs against ML-2 cells (%)” value ([1]; APC: DC, 2 stimulations, different donors) turn out when “YIISGDSPV (listed as Homo sapiens) [SEQ ID NO: 3, modified CD33 peptide]” was run?
Answer: 37%

Question: For “YIISGISPV (listed as Homo sapiens) [SEQ ID NO: 6, modified CD33 peptide]”, which “binding to HLA-A2.1 on T2 cells, in words” value (HLA-A2.1) is on record?
Answer: good and prolonged stable binding

Question: What does the source list for “YLALCLCLI (listed as Homo sapiens) [SEQ ID NO: 1]”?
Answer: Cytotoxicity of peptide-specific CTLs against ML-2 cells (%) ([1]; APC: T2, 2 stimulations, donors F, G): 21% and 34%; Cytotoxicity of peptide-specific CTLs against ML-2 cells (%) ([1]; APC: T2, 3 stimulations, donors F, G): 36% and 64%; Expression level of CD4 (T helper), mean fluorescence intensity [2]: 81 and 57; Expression level of CD45RO (Memory), mean fluorescence intensity [2]: 1262 and 1432; Expression level of CD95 (Activation), mean fluorescence intensity [2]: 99 and 102

Question: Which “binding to HLA-A2.1 on T2 cells, in words” value (HLA-A2.1) does the source give for “YLISGDSPV (listed as Homo sapiens) [SEQ ID NO: 7, modified CD33 peptide]” here?
Answer: good and prolonged stable binding
